From ChEMBL document CHEMBL1151713, “S-alkenyl cysteine sulfoxide and its antioxidant properties from Allium cepa var. tropeana (red onion) seeds” (J Nat Prod, 2008) come the findings set out here.

The subject of assay [1] is Radical scavenging activity. The assay is described as follows: Antioxidant activity assessed as DPPH radical scavenging activity by Brand-Williams method. Type of assay: functional.
Assay [2] can be described thus: Antioxidant activity by ferric reducing antioxidant power assay. The assay is classed as functional.

Each structure is given as a SMILES string.

`C/C=C/CC[S+]([O-])C[C@@H](N)C(=O)O` (stereo partly specified): the Activity came out at 107 µM in assay [1] and 178 µM in assay [2].

As to `Cc1cc(C(C)(C)C)c(O)c(C(C)(C)C)c1`, the Activity in assay [1] was 637 µM; in assay [2], 677 µM.

For `O=C1O[C@H]([C@@H](O)CO)C(O)=C1O`, the Activity in assay [1] is 903 µM; in assay [2], 824 µM.
